The values that follow come from patent publication US20260167622A1, “PAN-KRAS DEGRADING AGENT, AND PREPARATION METHOD THEREFOR AND USE THEREOF” (LEADINGTAC PHARMACEUTICAL (SHAOXING) CO., LTD., priority 2022, published 2026).

Common to all, as to assay type: cell-based
Test [1] addresses T1, KRAS G12C protein in NCI-H358 cells (Homo sapiens, UniProt P01116, G12C).
T1 construct: endogenous in cells; host or cells: NCI-H358
The experiment in a line: KRAS degradation assay (Western Blot) in NCI-H358 cells. To be noted: 24 h. From the text: (§1) Test Example 5: KRAS G12C, KRAS G12D, KRAS G12V, KRAS G13D, and KRAS WT (Expanded) Degradation Assays
(§2) The degradation effect of the compounds on KRAS was investigated on KRAS G12C mutant human non-small cell lung cancer cell NCI-H358, KRAS G12D mutant human metastatic pancreatic cancer cell AsPc-1, KRAS G12D mutant human lung cancer cell A427, KRAS G12V mutant human colorectal cancer cell SW620, KRAS G12V mutant human lung cancer cell SW900, KRAS G13D mutant human colorectal cancer epithelial cell DLD-1, and KRAS WT human gastric cancer cell MKN-1. The specific procedures were as follows: 0.95 mL of cells were seeded into each well of a 24-well cell culture plate to achieve a cell density of 5×10^5 cells/well; and the cell plate was incubated in an incubator at 37° C. with 5% CO2 overnight. Then 50 μL of the compound solution after dilution was added to each of the wells with the corresponding cells, so that the final concentration of the compound was in a range of 0.03-3000 nM. The final concentration of DMSO was 0.25%. After the compounds were added, the cell plate was incubated in an incubator at 37° C. with 5% CO2 for 24 h. The culture medium in the 24-well cell culture plate was then removed, and the plate was washed twice with 1×PBS (KeyGEN). 120 μL of RIPA (strong) lysis buffer (Beyotime) (supplemented with 1 mM phenylmethylsulfonyl fluoride, a protease inhibitor mixture (Beyotime), and a protease phosphatase inhibitor mixture (Beyotime)) was added to lyse adherent SW900 cells at the bottom of the cell culture plate. After the plate was left to stand on ice for 30 min, the protein lysate in each well was transferred to a 1.5 mL centrifuge tube and centrifuged at 15000 g for 20 min at 4° C. The cell lysate supernatants after centrifugation were cryopreserved in a refrigerator at −80° C. for later use.
(§3) After the samples of the cell lysate supernatants that had been prepared were thawed from the refrigerator at −80° C., the total protein concentrations of the cell lysates were determined using a BCA protein quantification kit (Tiangen). The total protein concentrations of the samples were then adjusted to 0.5 μg/μL with PBS and 5×SDS-PAGE protein loading buffer (Beyotime), and the samples were incubated in a water bath at 100° C. for 15 min. The samples were then incubated in an ice bath for 5 min and centrifuged at 14000 g for 1 min at 4° C., and the supernatants were mixed well as loading samples for the Western Blot assay. The samples were loaded into wells of a 10% precast gel (KeyGEN) with a loading volume of 10 μL (total protein: 5 μg), a sufficient Tris-MOPS-SDS running buffer (Adamas) was added, and then electrophoresis was performed at a constant voltage of 120 V for 55 min. After the electrophoresis, the proteins on the gel were transferred to PVDF membranes at a constant current of 250 mA for 55 min. After the membrane transfer, the PVDF membranes were incubated in 1× Quick Block blocking buffer (Beyotime)at room temperature for 30 min. After the blocking, the PVDF membranes were separately incubated at 4° C. overnight with the KRAS antibody (Abcam) diluted in a ratio of 1:1000 and the β-actin antibody (Abcam) diluted in a ratio of 1:2000 in 5% BSA as the diluent, and then washed with 1×TBST buffer (2.4 g of Tris, 8.8 g of NaCl, 1.5 mL of Tween 20, with pH adjusted to 7.4, with the volume brought to 1 L) 3 times for 10 min/time. The membranes were incubated with a secondary antibody (Abcam) diluted in 5% BSA at room temperature for 2 h, and then washed with 1×TBST buffer 3 times for 10 min/time. Finally, the membranes were incubated with Clarity Western ECL Substrate (BIO-RAD) for 5 min for luminescence and color development, and a ChemiScope 6200 Touch chemiluminescence imaging system (Clinx) was used for color development and protein mapping. Gray value analysis of the protein maps was performed using the chemiluminescence analysis software (Clinx). […]

In test [2] the test system is KRAS G12V mutant human colorectal cancer cell SW620. As to the kind of experiment: 3D cell proliferation inhibition assay, SW620. Particulars: SW-620, 168 h, 3D culture, 7 days, CTG. The gist of the method: (§4)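 Cells seeded in low-adsorption plates at 5×10^2 cells/well (MKN1 1×10^3) with compounds at final 10000–0.026 nM, 0.2% DMSO, 3D culture 7 days at 37 °C. Viability by CellTiter-Glo luminescence; inhibition normalised to DMSO and medium-only controls, IC50 from nonlinear log-concentration fit.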

For test [3], the target named is T2, KRAS G13D protein in DLD-1 cells (Homo sapiens, UniProt P01116, G13D).
T2 construct: endogenous in cells; host or cells: DLD-1
As to the kind of experiment: KRAS degradation assay (Western Blot) in DLD-1 cells. To be noted: 24 h. The gist of the method: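 DC50 and Dmax were fitted from KRAS band intensity, corrected to β-actin and expressed against untreated control, after Western blotting of 5 μg lysate protein. Cells were exposed for 24 h at 37 °C to 0.03-3000 nM compound (final) with 0.25% DMSO.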

For test [4], the system named is KRAS WT human gastric cancer cell MKN1. As to the kind of experiment: 3D cell proliferation inhibition assay, MKN1. To be noted: MKN-1, 168 h, 3D culture, 7 days, CTG. The gist of the method: as §4
The test system of test [5] is KRAS G12D mutant human metastatic pancreatic cancer cell AsPc-1. The experiment in a line: 3D cell proliferation inhibition assay, AsPc-1. To be noted: ASPC1, 168 h, 3D culture, 7 days, CTG. The gist of the method: as §4
Test [6] deals with KRAS G12C mutant human non-small cell lung cancer cell NCI-H358. As to the kind of experiment: 3D cell proliferation inhibition assay, NCI-H358. Particulars: NCI-H358, 168 h, 3D culture, 7 days, CTG. The gist of the method:
as §4

For test [7], the target named is T3, KRAS G12V protein in SW620 cells (Homo sapiens, UniProt P01116, G12V).
T3 construct: endogenous in cells; host or cells: SW620
As to the kind of experiment: KRAS degradation assay (Western Blot) in SW620 cells. To be noted: for DC50: 24 h; for Dmax: SW-620, 24 h. The gist of the method:
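Compounds were added at final concentrations of 0.03–3000 nM (0.25% DMSO) to overnight-plated cells and left for 24 h. Lysates, equalised by BCA, were immunoblotted for KRAS and β-actin, and DC50 and Dmax were derived from normalised band intensities relative to control.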

For test [8], the system named is KRAS G13D mutant human colorectal cancer epithelial cell DLD-1. As to the kind of experiment: 3D cell proliferation inhibition assay, DLD-1. To be noted: DLD-1, 168 h, 3D culture, 7 days, CTG. The gist of the method: as §4
The target of test [9] is T4, KRAS WT (expanded) protein in MKN1 cells (Homo sapiens, UniProt P01116).
T4 construct: endogenous in cells; host or cells: MKN1 (MKN-1)
The experiment in a line: KRAS degradation assay (Western Blot) in MKN1 cells. To be noted: for DC50: 24 h; for Dmax: MKN-1, 24 h.
Description: as §1, §2, §3

Test [10] has as its target T5, KRAS G12D protein in AsPc-1 cells (Homo sapiens, UniProt P01116, G12D).
T5 construct: endogenous in cells; host or cells: AsPc-1
The experiment in a line: KRAS degradation assay (Western Blot) in AsPc-1 cells.
Description: as §1, §2, §3

T2 sequence (P01116 1-188 isoform P01116-2 G13D): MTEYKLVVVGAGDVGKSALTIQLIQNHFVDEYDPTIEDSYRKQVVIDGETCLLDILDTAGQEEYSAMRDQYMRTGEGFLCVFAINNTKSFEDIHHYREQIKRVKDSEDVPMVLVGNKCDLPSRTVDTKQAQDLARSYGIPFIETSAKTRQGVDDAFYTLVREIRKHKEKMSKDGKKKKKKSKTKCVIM
T3 sequence (P01116 1-188 isoform P01116-2 G12V): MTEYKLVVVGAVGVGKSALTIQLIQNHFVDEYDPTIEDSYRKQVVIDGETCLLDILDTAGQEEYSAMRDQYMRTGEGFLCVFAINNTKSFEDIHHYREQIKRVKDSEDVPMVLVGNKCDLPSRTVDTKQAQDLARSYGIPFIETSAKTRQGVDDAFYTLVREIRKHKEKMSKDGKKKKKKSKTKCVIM
T4 sequence (P01116 1-188 isoform P01116-2): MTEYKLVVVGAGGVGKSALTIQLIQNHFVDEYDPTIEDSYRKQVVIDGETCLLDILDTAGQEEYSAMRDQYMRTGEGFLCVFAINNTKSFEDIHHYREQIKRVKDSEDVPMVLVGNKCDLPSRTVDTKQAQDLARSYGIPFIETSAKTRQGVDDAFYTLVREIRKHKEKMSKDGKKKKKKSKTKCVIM
T1 sequence (P01116 1-188 isoform P01116-2 G12C): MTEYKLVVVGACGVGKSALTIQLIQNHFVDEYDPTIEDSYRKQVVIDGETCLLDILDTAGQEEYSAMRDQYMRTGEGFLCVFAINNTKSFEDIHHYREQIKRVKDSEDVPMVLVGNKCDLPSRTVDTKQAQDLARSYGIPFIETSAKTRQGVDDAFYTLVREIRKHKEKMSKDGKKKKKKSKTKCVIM
T5 sequence (P01116 1-188 isoform P01116-2 G12D): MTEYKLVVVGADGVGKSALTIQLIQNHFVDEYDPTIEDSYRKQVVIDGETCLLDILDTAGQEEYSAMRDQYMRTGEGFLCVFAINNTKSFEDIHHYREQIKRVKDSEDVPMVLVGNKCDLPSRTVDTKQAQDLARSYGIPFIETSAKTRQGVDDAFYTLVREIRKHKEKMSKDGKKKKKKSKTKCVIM

For `C#Cc1c(F)ccc2cc(O)cc(-c3ncc4c(N5CCC[C@@](C)(O)C5)nc(OC[C@H](C)CN5CCN(CC6CCC7(CC6)CCN(C(=O)c6ccc(OC)c(N8CCC(=O)NC8=O)c6)CC7)CC5)nc4c3F)c12` [Example 46, 1-(5-(9-((4-((R)-3-((7-(8-ethynyl-7-fluoro-3-hydroxynaphthalen-1-yl)-8-fluoro-4-((R)-3-hydroxy-3-methylpiperidin-1-yl)pyrido[4,3-d]pyrimidin-2-yl)oxy)-2-methylpropyl)piperazin-1-yl)methyl)-3-azaspiro[5.5]undecane-3-carbonyl)-2-methoxyphenyl)dihydropyrimidine-2,4(1H,3H)-dione], the DC50 in test [1] amounted to 3.14 nM; in test [3], 2.36 nM; in [7], 0.87 nM; in test [9], 1.26 nM. Also, the Dmax in test [1] is 86.7%; in test [3], 100%; in test [7] it was 100%; in [9], 100%. Besides, the IC50 was determined as 2.81 nM in [2]; 2.01 nM in test [4]; 9.03 nM in [5]; 18.2 nM in [6]; 5.49 nM in test [8].
As to `C#Cc1c(F)ccc2cc(O)cc(-c3ncc4c(N5CCC[C@@](C)(O)C5)nc(OC[C@H](C)CN5CCN(CC6CCC7(CC6)CCN(C(=O)c6ccc(Cl)c(N8CCC(=O)NC8=O)c6)CC7)CC5)nc4c3F)c12` [Example 48, 1-(2-chloro-5-(9-((4-((R)-3-((7-(8-ethynyl-7-fluoro-3-hydroxynaphthalen-1-yl)-8-fluoro-4-((R)-3-hydroxy-3-methylpiperidin-1-yl)pyrido[4,3-d]pyrimidin-2-yl)oxy)-2-methylpropyl)piperazin-1-yl)methyl)-3-azaspiro[5.5]undecane-3-carbonyl)phenyl)dihydropyrimidine-2,4(1H,3H)-dione], the half-maximal degradation concentration (DC50) was 17.2 nM in test [1], 1.34 nM in test [3], 1.02 nM in test [7] and 2.33 nM in test [9]. In addition, the greatest degradation seen (Dmax) in [1], in test [3], in test [7] and in [9] was 100% throughout. The IC50 amounted to 5.17 nM in test [2]; 21.2 nM in test [4]; 23.2 nM in test [5]; 85.5 nM in test [6]; 2.61 nM in [8].
Consider `C#Cc1c(F)ccc2cc(O)cc(-c3ncc4c(N5CCC[C@@](C)(O)C5)nc(OCC5(CN6CCN(CC7CCC8(CC7)CCN(C(=O)c7cc(N9CCC(=O)NC9=O)c(C)cc7F)CC8)CC6)CC5)nc4c3F)c12` [Example 91, (R)-1-(5-(9-((4-((1-(((7-(8-ethynyl-7-fluoro-3-hydroxynaphthalen-1-yl)-8-fluoro-4-(3-hydroxy-3-methylpiperidin-1-yl)pyrido[4,3-d]pyrimidin-2-yl)oxy)methyl)cyclopropyl)methyl)piperazin-1-yl)methyl)-3-azaspiro[5.5]undecane-3-carbonyl)-4-fluoro-2-methylphenyl)dihydropyrimidine-2,4(1H,3H)-dione], for which the DC50 in [1] amounted to 6.04 nM; in test [3], 8.8 nM; in test [7] it was 5.16 nM; in test [9], 1.15 nM. Also, the Dmax in test [1] was determined as 92.7%; in test [3], 100%; in [7] it was 100%; in test [9], 98.9%. For the same compound, the IC50 in test [2] turned out to be 1.92 nM; in test [4], 5.41 nM; in test [5], 4.26 nM; in [6], 2.13 nM; in test [8], 8.33 nM.
For the compound `[2H]C([2H])([2H])c1ccc(C(=O)N2CCC3(CCC(CN4CCN(C[C@@H](C)COc5nc(N6CCC[C@@](C)(O)C6)c6cnc(-c7cc(O)cc8ccc(F)c(C#C)c78)c(F)c6n5)CC4)CC3)CC2)cc1N1CCC(=O)NC1=O` [Example 132, 1-(5-(9-((4-((R)-3-((7-(8-ethynyl-7-fluoro-3-hydroxynaphthalen-1-yl)-8-fluoro-4-((R)-3-hydroxy-3-methylpiperidin-1-yl)pyrido[4,3-d]pyrimidin-2-yl)oxy)-2-methylpropyl)piperazin-1-yl)methyl)-3-azaspiro[5.5]undecane-3-carbonyl)-2-(methyl-d3)phenyl)dihydropyrimidine-2,4(1H,3H)-dione], the 50% degradation concentration (DC50) in test [1] came out at 1.37 nM; in test [3], 5.6 nM; in test [10] (24 h) it was 25.2 nM; in [7] it was 2.42 nM. In addition, the Dmax in test [1] was 100%; in test [3] it was 100%; in test [10] (ASPC1, 24 h), 95.3%; in test [7], 100%. Also, the IC50 in test [2] is 0.43 nM; in [4] it was 4.31 nM; in test [5], 9.75 nM; in test [6], 6.2 nM; in [8], 7.7 nM.
